Measured values taken from patent US7638540B2, “Benzofuran compound and medicinal composition containing the same” (The New Industry Research Organization, priority 2003, dated 2009).

melting point [°C] | SMILES
127.8 to 130 | C/C=C/C(=O)Nc1c(C(C)=O)oc2ccc(Br)cc12 [Example 123, (E)-N-(2-acetyl-5-bromobenzofuran-3-yl)-2-butenamide]
206.9 to 208.6 | CC(=O)c1oc2ccc(/C(C)=C/C(=O)N3CCOCC3)cc2c1NC(=O)/C(C#N)=C(/C)O [Example 108, N-[2-acetyl-5-(1-methyl-3-morpholino-3-oxo-(E)-1-propenyl)benzofuran-3-yl]-2-cyano-3-hydroxy-(Z)-2-butenamide]
221.1 to 222 | CC(=O)Nc1c(C(=O)/C=C/N(C)C)oc2ccc(Br)cc12 [Example 194, (E)-N-[5-bromo-2-(3-dimethylaminoacryloyl)benzofuran-3-yl]acetamide]
248.7 to 250.3 | O=C(/C=C/c1ccccc1)Nc1c(Cl)oc2ccc(Br)cc12 [Example 180, (E)-N-(5-bromo-2-chlorobenzofuran-3-yl)-3-phenylacrylamide]
167.5 to 169 | COc1ccc(NC(=O)/C=C/C=C(\Cl)c2cc3cccc(OCCCCl)c3o2)cc1OC [Example 53, (2E,4Z)-5-chloro-5-[7-(3-chloropropoxy)benzofuran-2-yl]penta-2,4-dienoic acid (3,4-dimethoxyphenyl)amide]
170.3 to 174.1 | CCN(CC)C(=O)/C=C(\C)c1ccc2oc(C(C)=O)c(NC(=O)c3cnoc3C)c2c1 [Example 74, (E)-N-[2-acetyl-5-(2-diethylcarbamoyl-1-methylvinyl)benzofuran-3-yl]-5-methylisoxazole-4-carboxamide]
174 to 177 | CC(=O)c1oc2ccccc2c1NC(=O)c1cnoc1C [Example 69, N-(2-acetylbenzofuran-3-yl)-5-methylisoxazole-4-carboxamide]
112.7 to 114.3 | COc1ccc(CCNC(=O)/C=C(\C)c2ccc3oc(C(C)=O)cc3c2)cc1OC [Example 26, (E)-3-(2-acetylbenzofuran-5-yl)-N-[2-(3,4-dimethoxyphenyl)ethyl]-2-butenamide]
133.7 to 135.4 | CCOC(=O)C(CSCc1ccccc1)NC(=O)/C=C/C=C(\Cl)c1cc2cc(Br)ccc2o1 (stereo not drawn) [Example 64, Ethyl (2E,4Z)-3-benzylsulfanyl-2-[5-(5-bromobenzofuran-2-yl)-5-chloropenta-2,4-dienoylamino]propionate]
191.8 to 193.6 | COc1ccc(NC(=O)/C=C(\C)c2cc3cccc(OC(c4ccccc4)c4ccccc4)c3o2)cc1 [Example 41, (E)-3-(7-benzhydryloxybenzofuran-2-yl)-N-(4-methoxyphenyl)-2-butenamide]
206.3 to 208.3 | C/C(O)=C(\C#N)C(=O)Nc1c(C#N)oc2ccc(Br)cc12 [Example 104, (Z)-N-(5-bromo-2-cyanobenzofuran-3-yl)-2-cyano-3-hydroxy-2-butenamide]
237.5 to 239.1 | COc1ccc(CCNC(=O)/C=C(\C)c2ccc(C(=O)c3oc4c(OC)cccc4c3NC(=O)c3cnoc3C)cc2)cc1OC [Example 84, (E)-N-[2-(4-{2-[2-(3,4-dimethoxyphenyl)ethylcarbamoyl]-1-methylvinyl}benzoyl)-7-methoxybenzofuran-3-yl]-5-methylisoxazole-4-carboxamide]
166 to 168.2 | CCOC(=O)c1oc2ccccc2c1NC(=O)c1cnoc1C [Example 68, Ethyl 3-[(5-methylisoxazole-4-carbonyl)amino]benzofurane-2-carboxylate]
216.8 to 218.7 | COc1ccc2oc(-c3csc(NC(=O)c4cnoc4C)n3)c(-c3ccc(Cl)cc3)c2c1 [Example 220, 5-methylisoxazole-4-carboxylic acid {4-[3-(4-chlorophenyl)-5-methoxybenzofuran-2-yl]thiazol-2-yl}amide]
176.4 to 181.5 | COc1cccc(NC(=O)/C=C(\C)c2cc3c(Br)ccc(OCCN(C)C)c3o2)c1 [Example 39, (E)-3-[4-bromo-7-(2-dimethylaminoethoxy)benzofuran-2-yl]-N-(3-methoxyphenyl)-2-butenamide]
221.9 to 222.4 | CC(=O)c1oc2ccc(Br)cc2c1NC(=O)/C(C#N)=C(/C)O [Example 96, (Z)-N-(2-acetyl-5-bromobenzofuran-3-yl)-2-cyano-3-hydroxy-2-butenamide]
156.4 to 158.4 | Cc1nc(-c2oc3c(Cl)cccc3c2-c2ccc(Cl)cc2)cs1 [Example 214, 4-[7-chloro-3-(4-chlorophenyl)benzofuran-2-yl]-2-methylthiazole]
196.3 to 196.6 | C/C(O)=C(\C#N)C(=O)Nc1c(C(=O)O)oc2ccccc12 [Example 92, (Z)-3-(2-cyano-3-hydroxy-2-butenoylamino)benzofurane-2-carboxylic acid]
204.7 to 206.8 | O=C(CCCl)Nc1c(C(=O)/C=C/c2ccccc2)oc2ccc(Br)cc12 [Example 201, (E)-N-[5-bromo-2-(3-phenylacryloyl)-benzofuran-3-yl]-3-chloropropionamide]
70.8 to 73.5 | COc1ccc(CCNC(=O)/C=C(\C)c2cc3cccc(OC(c4ccccc4)c4ccccc4)c3o2)cc1OC [Example 47, (E)-3-(7-benzhydryloxybenzofuran-2-yl)-N-[2-(3,4-dimethoxyphenyl)ethyl]-2-butenamide]

melting point [°C] | SMILES
125.2 to 128.8 | Cc1oncc1C(=O)Nc1c(C(C)O)oc2ccc(Br)cc12 (stereo not drawn) [Example 70, N-[5-bromo-2-(1-hydroxyethyl)benzofuran-3-yl]-5-methylisoxazole-4-carboxamide]
131 to 135 | CCc1c(/C(C)=C/C(=O)NCCc2ccc(OC)c(OC)c2)oc2ccccc12 [Example 167, 3-(3-ethylbenzofuran-2-yl)-2-butenoic acid [2-(3,4-dimethoxyphenyl)ethyl]amide]
245.4 to 249.5 | N#CCC(=O)Nc1c(C(=O)c2ccc(Cl)cc2)oc2ccc(Br)cc12 [Example 197, N-[5-bromo-2-(4-chlorobenzoyl)benzofuran-3-yl]-2-cyanoacetamide]
181 to 181.7 | COc1cccc2c(NC(=O)c3cnoc3C)c(C(C)=O)oc12 [Example 80, N-(2-acetyl-7-methoxybenzofuran-3-yl)-5-methylisoxazole-4-carboxamide]
147.9 to 148.6 | C/C(O)=C(\C#N)C(=O)NC(C)c1cc2cccc(OCCCC(=O)O)c2o1 (stereo not drawn) [Example 126, (Z)-4-{2-[1-(2-cyano-3-hydroxy-2-butenoylamino)ethyl]benzofuran-7-yloxy}butyric acid]
116.5 to 118.3 | CCOC(=O)C(CSCc1ccccc1)NC(=O)/C=C/C=C(\Cl)c1cc2cccc(OCCCCl)c2o1 (stereo not drawn) [Example 63, Ethyl (2E,4Z)-3-benzylsulfanyl-2-{5-chloro-5-[7-(3-chloropropoxy)benzofuran-2-yl]penta-2,4-dienoylamino}propionate]
237.4 to 239.5 | COc1cccc2c(NC(=O)c3cnoc3C)c(C(=O)c3ccc(Cl)cc3)oc12 [Example 82, N-[2-(4-chlorobenzoyl)-7-methoxybenzofuran-3-yl]-5-methylisoxazole-4-carboxamide]
121 to 123 | CCN(CC)C(=O)/C=C(\C)c1cc2c(Br)cc(Br)c(OCCCC(=O)O)c2o1 [Example 31, (E)-4-[4,6-dibromo-2-(2-diethylcarbamoyl-1-methylvinyl)benzofuran-7-yloxy]butyric acid]
169.3 to 170.2 | CCNS(=O)(=O)c1ccc(OCCCC(=O)O)c2oc(C(C)NC(=O)/C(C#N)=C(\C)O)cc12 (stereo not drawn) [Example 129, (E)-4-{2-[1-(2-cyano-3-hydroxy-2-butenoylamino)ethyl]-4-ethylsulfamoylbenzofuran-7-yloxy}butyric acid]
159.5 to 162 | CCOC(=O)c1oc2ccc(/C(C)=C/C(=O)N(CC)CC)cc2c1N [Example 15, Ethyl (E)-3-amino-5-(2-diethylcarbamoyl-1-methylvinyl)benzofurane-2-carboxylate]
168.2 to 170.1 | COc1ccc2c(NC(=O)c3cnoc3C)c(C(C)=O)oc2c1 [Example 83, N-(2-acetyl-6-methoxybenzofuran-3-yl)-5-methylisoxazole-4-carboxamide]
95 to 99 | CCCCc1oc2ccccc2c1/C(C)=C/C(=O)NCCc1ccc(OC)c(OC)c1 [Example 157, (E)-3-(2-butylbenzofuran-3-yl)-2-butenoic acid [2-(3,4-dimethoxyphenyl)ethyl]amide]
104.7 to 107.7 | C/C=C/C(=O)NC(C)c1cc2cccc(OCCCCl)c2o1 (stereo not drawn) [Example 133, (E)-N-{1-[7-(3-chloropropoxy)benzofuran-2-yl]ethyl}-2-butenamide]
88.1 to 90 | CCNS(=O)(=O)c1ccc(OCCCC(=O)OCC)c2oc(C(C)NC(=O)c3cnoc3C)cc12 (stereo not drawn) [Example 125, Ethyl 4-(4-ethylsulfamoyl-2-{1-[(5-methylisoxazole-4-carbonyl)amino]ethyl}benzofuran-7-yloxy)butyrate]
120 to 125 | COc1ccc(NC(=O)/C=C(\C)c2cc3cccc(OC(C)c4ccccc4)c3o2)cc1 (stereo not drawn) [Example 172, (E)-3-[7-(1-phenylethoxy)benzofuran-2-yl]-2-butenoic acid (4-methoxyphenyl)amide]
165.7 to 168 | C/C=C/C(=O)Nc1c(C(C)=O)oc2c(OC)cccc12 [Example 185, (E)-2-butenoic acid (2-acetyl-7-methoxybenzofuran-3-yl)amide]
123.8 to 126.5 | COc1ccc(/C=C/C(=O)c2oc3ccc(Br)cc3c2NC(=O)CCNCc2ccccc2)cc1 [Example 203, (E)-3-benzylamino-N-{5-bromo-2-[3-(4-methoxyphenyl)acryloyl]benzofuran-3-yl}propionamide]
126.9 to 129.4 | COc1ccc(CCNC(=O)/C=C(\C)c2ccc3oc(C(=O)c4ccccc4)cc3c2)cc1OC [Example 24, (E)-3-(2-benzoylbenzofuran-5-yl)-N-[2-(3,4-dimethoxyphenyl)ethyl]-2-butenamide]
202.6 to 204.4 | C/C(=C\C(=O)N1CCOCC1)c1ccc2oc(/C(C)=C/C(=O)O)cc2c1 [Example 136, (E,E)-3-[5-(1-methyl-3-morpholin-4-yl-3-oxopropenyl)benzofuran-2-yl]-2-butenoic acid]
